ChEMBL document CHEMBL5380857, “Discovery of Potent, Selective, and Orally Bioavailable Small-Molecule Inhibitors of CDK8 for the Treatment of Cancer” (J Med Chem, 2023)

Tests used:
[1] = system: MV4-11; experiment: Antiproliferative activity against human MV4-11 cells assessed as inhibition of cell growth incubated for 10 days and replacement with fresh media with compounds on day 5 by CTG assay; assay type: functional, cell-based
[2] = Metabolic stability in mouse liver microsomes assessed as intrinsic clearance at 1 uM preincubated for 10 mins followed by NADPH addition and measured for 60 mins by LC-MS/MS analysis; assay type: ADME, Microsome; details: read-out: CLH
[3] = Metabolic stability in rat liver microsomes assessed as intrinsic clearance at 1 uM preincubated for 10 mins followed by NADPH addition and measured for 60 mins by LC-MS/MS analysis; assay type: ADME, Microsome; details: read-out: CLH
[4] = Bioavailability in CD-1 mouse at 5 mg/kg, po or 1 mg/kg, iv administered as single dose and measured for 24 hrs by LC-MS/MS analysis; assay type: ADME, organism-based; details: in vivo
[5] = Metabolic stability in human liver microsomes assessed as intrinsic clearance at 1 uM preincubated for 10 mins followed by NADPH addition and measured for 60 mins by LC-MS/MS analysis; assay type: ADME, Microsome; details: read-out: CLH
[6] = Volume of distribution in CD-1 mouse at 5 mg/kg, po or 1 mg/kg, iv administered as single dose and measured for 24 hrs by LC-MS/MS analysis; assay type: ADME, organism-based; details: in vivo
[7] = molecular target: CDK8/Cyclin C (Homo sapiens, UniProt P49336); experiment: Inhibition of His tagged human recombinant CDK8/Cyclin C expressed in baculovirus expression system incubated for 15 mins by FRET-based LanthaScreen binding competition assay
[8] = molecular target: T1, Serine/threonine-protein kinase LATS2 (Homo sapiens, UniProt Q9NRM7); experiment: Binding affinity to LATS2 (unknown origin) assessed as dissociation constant by competitive binding assay
T1 sequence (Q9NRM7 whole entry): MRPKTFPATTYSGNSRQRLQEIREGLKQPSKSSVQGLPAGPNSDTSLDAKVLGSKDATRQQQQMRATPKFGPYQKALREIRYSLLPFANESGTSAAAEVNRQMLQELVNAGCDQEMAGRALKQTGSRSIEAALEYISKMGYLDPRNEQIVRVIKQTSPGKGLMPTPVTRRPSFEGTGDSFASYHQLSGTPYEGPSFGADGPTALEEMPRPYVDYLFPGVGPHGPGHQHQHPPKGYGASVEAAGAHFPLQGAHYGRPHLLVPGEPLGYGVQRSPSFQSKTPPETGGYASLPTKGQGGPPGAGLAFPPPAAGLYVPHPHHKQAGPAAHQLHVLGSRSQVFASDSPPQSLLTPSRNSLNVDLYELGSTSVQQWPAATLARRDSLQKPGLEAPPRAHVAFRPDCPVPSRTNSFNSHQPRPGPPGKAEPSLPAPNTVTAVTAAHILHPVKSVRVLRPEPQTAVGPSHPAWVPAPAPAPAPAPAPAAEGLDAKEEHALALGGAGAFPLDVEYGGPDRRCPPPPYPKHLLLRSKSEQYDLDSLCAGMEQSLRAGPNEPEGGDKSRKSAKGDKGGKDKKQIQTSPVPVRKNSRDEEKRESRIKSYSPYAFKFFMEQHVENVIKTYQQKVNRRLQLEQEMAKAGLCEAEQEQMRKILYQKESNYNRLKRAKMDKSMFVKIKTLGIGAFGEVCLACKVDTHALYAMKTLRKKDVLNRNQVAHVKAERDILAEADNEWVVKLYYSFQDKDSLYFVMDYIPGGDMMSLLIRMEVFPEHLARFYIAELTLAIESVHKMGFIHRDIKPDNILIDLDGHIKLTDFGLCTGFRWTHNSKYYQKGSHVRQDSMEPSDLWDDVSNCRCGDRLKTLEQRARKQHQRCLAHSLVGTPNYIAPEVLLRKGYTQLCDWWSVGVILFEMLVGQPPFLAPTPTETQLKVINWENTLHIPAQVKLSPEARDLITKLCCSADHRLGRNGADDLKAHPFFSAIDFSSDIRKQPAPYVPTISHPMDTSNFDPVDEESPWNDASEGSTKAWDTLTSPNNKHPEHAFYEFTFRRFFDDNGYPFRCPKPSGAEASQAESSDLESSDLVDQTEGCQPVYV

[9] = molecular target: Dual specificity tyrosine-phosphorylation-regulated kinase 1B (Homo sapiens, UniProt Q9Y463); experiment: Binding affinity to DYRK1B (unknown origin) assessed as dissociation constant by competitive binding assay
[10] = molecular target: Phosphatidylinositol 3-kinase catalytic subunit type 3 (Homo sapiens, UniProt Q8NEB9); experiment: Binding affinity to VPS34 (unknown origin) assessed as dissociation constant by competitive binding assay
[11] = molecular target: Glycogen synthase kinase-3 alpha (Homo sapiens, UniProt P49840); experiment: Binding affinity to GSK3A (unknown origin) assessed as dissociation constant by competitive binding assay
[12] = molecular target: Dual specificity protein kinase CLK1 (Homo sapiens, UniProt P49759); experiment: Binding affinity to CLK1 (unknown origin) assessed as dissociation constant by competitive binding assay
[13] = molecular target: Glycogen synthase kinase-3 beta (Homo sapiens, UniProt P49841)
Description: Binding affinity to GSK3B (unknown origin) assessed as dissociation constant by competitive binding assay

[14] = molecular target: Dual specificity protein kinase CLK2 (Homo sapiens, UniProt P49760); experiment: Binding affinity to CLK2 (unknown origin) assessed as dissociation constant by competitive binding assay
[15] = system: MV4-11; experiment: Antitumor activity against human MV4-11 cells xenografted in BALB/c nude mouse assessed as tumor growth inhibition at 60 mg/kg, po qd administered by gavage for 17 days and measured 3 times per week by caliper method relative to control; assay type: functional; details: MV4-11, 408 h, time 17 day, read-out: TGI

Chain of Glycogen synthase kinase-3 alpha (P49840 whole entry): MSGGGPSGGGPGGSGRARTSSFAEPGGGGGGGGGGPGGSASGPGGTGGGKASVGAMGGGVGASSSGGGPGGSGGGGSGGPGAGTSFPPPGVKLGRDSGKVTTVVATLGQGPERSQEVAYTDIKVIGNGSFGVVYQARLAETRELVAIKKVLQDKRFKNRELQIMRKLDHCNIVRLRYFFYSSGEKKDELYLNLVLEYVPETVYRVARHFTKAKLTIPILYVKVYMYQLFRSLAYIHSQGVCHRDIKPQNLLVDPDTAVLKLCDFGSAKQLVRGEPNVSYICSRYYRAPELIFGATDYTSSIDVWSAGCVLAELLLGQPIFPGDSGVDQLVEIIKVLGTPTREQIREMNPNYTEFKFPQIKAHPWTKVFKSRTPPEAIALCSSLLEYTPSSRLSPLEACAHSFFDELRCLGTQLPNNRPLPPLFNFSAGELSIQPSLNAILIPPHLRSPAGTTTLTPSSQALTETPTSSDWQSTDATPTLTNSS
Chain of Glycogen synthase kinase-3 beta (P49841 whole entry): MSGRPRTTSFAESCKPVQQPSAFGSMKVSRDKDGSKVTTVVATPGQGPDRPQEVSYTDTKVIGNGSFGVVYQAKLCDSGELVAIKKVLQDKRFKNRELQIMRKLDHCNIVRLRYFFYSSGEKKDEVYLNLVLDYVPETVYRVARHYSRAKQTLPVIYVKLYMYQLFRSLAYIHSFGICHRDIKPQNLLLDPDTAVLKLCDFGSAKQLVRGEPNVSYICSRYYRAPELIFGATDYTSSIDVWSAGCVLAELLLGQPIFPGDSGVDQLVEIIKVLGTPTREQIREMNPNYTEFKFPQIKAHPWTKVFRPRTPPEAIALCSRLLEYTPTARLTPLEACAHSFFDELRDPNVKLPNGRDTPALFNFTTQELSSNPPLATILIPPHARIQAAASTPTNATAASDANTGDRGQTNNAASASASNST
Chain of CDK8/Cyclin C (P49336 whole entry): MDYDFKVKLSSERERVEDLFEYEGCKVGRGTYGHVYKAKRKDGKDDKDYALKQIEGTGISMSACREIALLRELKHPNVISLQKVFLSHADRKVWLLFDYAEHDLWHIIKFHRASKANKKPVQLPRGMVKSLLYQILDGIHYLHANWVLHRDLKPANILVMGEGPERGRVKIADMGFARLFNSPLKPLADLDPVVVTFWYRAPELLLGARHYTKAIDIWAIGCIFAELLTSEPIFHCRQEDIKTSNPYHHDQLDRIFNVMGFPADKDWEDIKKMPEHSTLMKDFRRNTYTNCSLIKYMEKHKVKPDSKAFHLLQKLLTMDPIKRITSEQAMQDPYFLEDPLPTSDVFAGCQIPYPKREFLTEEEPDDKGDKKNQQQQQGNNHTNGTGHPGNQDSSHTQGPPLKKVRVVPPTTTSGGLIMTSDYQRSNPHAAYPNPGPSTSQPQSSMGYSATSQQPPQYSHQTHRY
Chain of CDK8/Cyclin C (P24863 whole entry, further chain): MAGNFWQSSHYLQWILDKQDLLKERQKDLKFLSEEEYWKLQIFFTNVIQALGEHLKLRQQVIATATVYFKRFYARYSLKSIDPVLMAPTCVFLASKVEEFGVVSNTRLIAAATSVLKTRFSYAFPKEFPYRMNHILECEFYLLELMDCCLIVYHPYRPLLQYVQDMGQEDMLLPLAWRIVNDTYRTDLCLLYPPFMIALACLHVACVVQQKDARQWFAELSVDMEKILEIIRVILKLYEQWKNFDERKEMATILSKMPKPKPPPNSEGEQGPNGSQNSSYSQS
Chain of Dual specificity tyrosine-phosphorylation-regulated kinase 1B (Q9Y463 whole entry): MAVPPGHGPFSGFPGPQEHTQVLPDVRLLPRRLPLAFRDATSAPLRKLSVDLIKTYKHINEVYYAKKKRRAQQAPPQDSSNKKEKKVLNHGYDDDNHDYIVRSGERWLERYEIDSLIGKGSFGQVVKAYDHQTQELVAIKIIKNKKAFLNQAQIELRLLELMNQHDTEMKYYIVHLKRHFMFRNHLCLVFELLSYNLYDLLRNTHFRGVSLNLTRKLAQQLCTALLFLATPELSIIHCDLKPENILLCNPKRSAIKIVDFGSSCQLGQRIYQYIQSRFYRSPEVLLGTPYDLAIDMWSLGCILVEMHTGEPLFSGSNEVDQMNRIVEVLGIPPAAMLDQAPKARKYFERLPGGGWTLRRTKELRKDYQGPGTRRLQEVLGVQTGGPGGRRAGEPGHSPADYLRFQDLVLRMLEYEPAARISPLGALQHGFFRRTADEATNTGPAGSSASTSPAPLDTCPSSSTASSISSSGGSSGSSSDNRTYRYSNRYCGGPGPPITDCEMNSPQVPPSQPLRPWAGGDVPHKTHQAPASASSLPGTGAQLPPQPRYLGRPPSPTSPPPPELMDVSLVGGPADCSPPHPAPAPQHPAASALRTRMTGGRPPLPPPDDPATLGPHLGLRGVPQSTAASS
Chain of Dual specificity protein kinase CLK2 (P49760 whole entry): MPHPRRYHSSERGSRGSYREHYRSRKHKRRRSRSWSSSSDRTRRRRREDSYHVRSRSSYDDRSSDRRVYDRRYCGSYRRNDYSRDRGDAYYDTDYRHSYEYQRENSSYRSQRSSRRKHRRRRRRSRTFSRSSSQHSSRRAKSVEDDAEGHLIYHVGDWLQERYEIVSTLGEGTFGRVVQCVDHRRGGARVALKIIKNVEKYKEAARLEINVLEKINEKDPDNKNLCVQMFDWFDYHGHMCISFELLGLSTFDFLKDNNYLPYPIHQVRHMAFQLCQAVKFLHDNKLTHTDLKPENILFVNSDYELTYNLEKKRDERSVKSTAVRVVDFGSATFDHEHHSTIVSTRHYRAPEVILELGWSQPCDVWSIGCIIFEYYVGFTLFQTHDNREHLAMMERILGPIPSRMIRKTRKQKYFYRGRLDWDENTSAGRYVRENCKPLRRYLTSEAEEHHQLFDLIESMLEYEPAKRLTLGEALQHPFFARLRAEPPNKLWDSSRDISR
Chain of Phosphatidylinositol 3-kinase catalytic subunit type 3 (Q8NEB9 whole entry): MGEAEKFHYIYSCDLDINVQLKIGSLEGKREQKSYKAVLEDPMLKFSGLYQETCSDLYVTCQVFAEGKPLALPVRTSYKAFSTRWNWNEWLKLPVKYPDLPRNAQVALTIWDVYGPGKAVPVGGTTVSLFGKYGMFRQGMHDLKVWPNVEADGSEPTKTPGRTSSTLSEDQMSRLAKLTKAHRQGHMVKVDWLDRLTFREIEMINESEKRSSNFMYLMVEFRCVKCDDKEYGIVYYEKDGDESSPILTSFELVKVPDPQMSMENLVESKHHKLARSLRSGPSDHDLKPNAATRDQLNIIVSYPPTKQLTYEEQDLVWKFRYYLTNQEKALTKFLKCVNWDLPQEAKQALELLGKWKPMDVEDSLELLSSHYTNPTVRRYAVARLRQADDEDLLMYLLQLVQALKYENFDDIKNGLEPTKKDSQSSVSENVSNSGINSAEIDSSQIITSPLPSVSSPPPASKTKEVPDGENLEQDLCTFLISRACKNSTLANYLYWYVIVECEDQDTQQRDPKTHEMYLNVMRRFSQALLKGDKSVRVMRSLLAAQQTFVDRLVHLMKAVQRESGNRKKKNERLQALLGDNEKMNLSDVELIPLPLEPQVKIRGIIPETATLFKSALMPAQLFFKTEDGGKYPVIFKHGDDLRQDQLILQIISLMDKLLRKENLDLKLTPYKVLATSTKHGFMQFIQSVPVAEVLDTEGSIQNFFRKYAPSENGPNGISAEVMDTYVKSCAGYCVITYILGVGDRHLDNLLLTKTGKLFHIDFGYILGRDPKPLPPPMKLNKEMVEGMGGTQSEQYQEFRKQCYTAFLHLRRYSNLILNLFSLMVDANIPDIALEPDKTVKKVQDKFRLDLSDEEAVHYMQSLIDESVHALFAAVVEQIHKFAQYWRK
Chain of Dual specificity protein kinase CLK1 (P49759 whole entry): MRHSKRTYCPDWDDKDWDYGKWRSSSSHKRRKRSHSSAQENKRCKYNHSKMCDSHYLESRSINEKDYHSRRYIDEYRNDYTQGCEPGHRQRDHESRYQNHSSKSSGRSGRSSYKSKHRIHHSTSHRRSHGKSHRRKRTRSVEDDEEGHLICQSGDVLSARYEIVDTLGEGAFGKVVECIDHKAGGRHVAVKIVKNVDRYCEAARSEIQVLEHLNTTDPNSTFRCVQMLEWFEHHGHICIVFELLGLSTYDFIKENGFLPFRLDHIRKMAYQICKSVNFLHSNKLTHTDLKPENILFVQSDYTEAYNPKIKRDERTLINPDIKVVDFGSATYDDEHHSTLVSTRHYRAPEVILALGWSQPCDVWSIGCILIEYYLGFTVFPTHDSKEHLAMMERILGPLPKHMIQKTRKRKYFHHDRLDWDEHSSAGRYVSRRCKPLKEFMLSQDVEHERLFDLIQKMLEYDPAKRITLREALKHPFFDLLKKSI

Compound | IC50 [1] [nM] | CLint scaled at 1 µM [2] [mL/min/kg] | CLint scaled at 1 µM [3] [mL/min/kg] | CLint scaled at 1 µM [5] [mL/min/kg] | IC50 [7] [nM] | also measured
Cc1n[nH]c2ccc(-c3nnc(C)n3C(C)c3ccc(Cl)cc3)cc12 (stereo not given) |  |  |  |  | 277 | 
Cc1n[nH]c2ccc(-c3nnc(C)n3Cc3ccc(Cl)cn3)cc12 |  |  |  |  | 80 | 
Cc1n[nH]c2ccc(-c3ncc(C)n3Cc3ccc(Cl)cc3)cc12 | 367 |  |  |  | 7.32 | 
Cc1n[nH]c2ccc(-c3nnc(C(F)(F)F)n3Cc3ccc(Cl)cc3)cc12 |  |  |  |  | 4.82 | 
Cc1n[nH]c2ccc(-c3nnc(C)n3Cc3ccc(C#N)cc3)cc12 |  |  |  |  | 6.14 | 
COc1nnc(-c2ccc3[nH]nc(C)c3c2)n1Cc1ccc(Cl)cc1 |  |  |  |  | 82.9 | 
CNc1n[nH]c2ncc(-c3nnc4n3C(c3ccc(Cl)cc3)CC4)cc12 (racemic) |  |  |  |  | 35.7 | 
Cc1n[nH]c2ccc(-c3nnc(O)n3Cc3ccc(Cl)cc3)cc12 |  |  |  |  | > 1000 | 
CNc1n[nH]c2ccc(-c3nnc4n3C(c3ccc(Cl)cc3)CC4)cc12 (racemic) |  |  |  |  | 5.4 | 
Cc1c(Br)c(Br)c2c3c1nc(N1CCNCC1)n3CCC2 [SEL-120 FREE BASE] | 249 |  |  |  | 14.1 | inhibition in vivo at 60 mg/kg [15]: 55.6%
Cc1n[nH]c2ncc(-c3nnc(C)n3Cc3ccc(Cl)cc3)cc12 |  |  |  |  | 17.1 | 

The next compounds have a lower IC50 [7] than those just listed; values first:

IC50 [1] [nM] | CLint scaled at 1 µM [2] [mL/min/kg] | CLint scaled at 1 µM [3] [mL/min/kg] | CLint scaled at 1 µM [5] [mL/min/kg] | IC50 [7] [nM] | Compound | also measured
 |  |  |  | 3.29 | Cc1n[nH]c2ccc(-c3nnc(C)n3Cc3ccc(Cl)cc3)nc12 | 
24.6 | 368 | 104 | < 8.6 | 1.5 | Cc1n[nH]c2ncc(-c3nnc4n3[C@H](c3ccc(Cl)cc3)CC4)cc12 | Kd [8]: 730 nM; Kd [9]: 2100 nM; Kd [10]: 2900 nM; Kd [11]: 6.5 nM; bioavailability [4]: 63.4%; Kd [12]: 86 nM; Kd [13]: 3.8 nM; Vd [6]: 0.7 L/kg; Kd [14]: 82 nM
11.7 | 339 | 270 | < 8.6 | 0.9 | Cc1n[nH]c2ccc(-c3nnc4n3[C@H](c3ccc(Cl)cc3)CC4)nc12 | Kd [8]: 460 nM; Kd [9]: 1300 nM; Kd [10]: 20 nM; Kd [11]: 74 nM; bioavailability [4]: 63.7%; Kd [12]: 71 nM; Kd [13]: 39 nM; Vd [6]: 0.4 L/kg; Kd [14]: 64 nM
72.8 | 273 | 54.5 | 10.8 | 0.88 | Cc1nnc(-c2ccc3[nH]nc(Cl)c3c2)n1Cc1ccc(Cl)cc1 | bioavailability [4]: 50.8%; Vd [6]: 2.7 L/kg
6.2 |  |  |  | 0.83 | Cc1n[nH]c2ccc(-c3nnc4n3[C@H](c3ccc(Cl)cc3)CN(C)C4)cc12 | 
 | 536 |  | 59.2 | 0.71 | Cc1n[nH]c2ccc(-c3cnn(C)c3Cc3ccc(Cl)cc3)cc12 | 
7.6 | 720 | 118 | 92 | 0.63 | Cc1n[nH]c2ccc(-c3nnc4n3[C@H](c3ccc(Cl)cc3)COC4)cc12 | bioavailability [4]: 19.4%; Vd [6]: 1.2 L/kg
8.6 | 342 | 54.4 | 12.2 | 0.49 | Cc1n[nH]c2ccc(-c3nnc(C)n3Cc3ccc(Cl)cc3)cc12 | Kd [8]: 38 nM; Kd [9]: 1400 nM; Kd [10]: 1800 nM; Kd [11]: 120 nM; bioavailability [4]: 82.1%; Kd [12]: 43 nM; Kd [13]: 56 nM; Vd [6]: 0.8 L/kg; Kd [14]: 36 nM
 | 1310 |  | 64.9 | 0.48 | Cc1n[nH]c2ccc(-c3nnc4n3[C@H](c3ccc(Cl)cc3)CNC4)cc12 | 
2.4 | 540 | 151 | 23.1 | 0.4 | Cc1n[nH]c2ccc(-c3nnc4n3[C@H](c3ccc(Cl)cc3)CC4)cc12 | Kd [8]: 18 nM; Kd [9]: 330 nM; Kd [10]: 68 nM; Kd [11]: 4.3 nM; bioavailability [4]: 63.7%; Kd [12]: 15 nM; Vd [6]: 0.7 L/kg; Kd [14]: 2.1 nM
4.75 | 823 | 385 | 66.1 | 0.4 | Cc1n[nH]c2ccc(-c3nnn(C)c3Cc3ccc(Cl)cc3)cc12 | 
 | 843 |  | 87.1 | 0.37 | Cc1n[nH]c2ccc(-c3nnc4n3[C@H](c3ccc(Cl)cc3)CCC4)cc12 | 
